Experimental findings from US20250360091A1, “COMBINATION OF SGLT2 INHIBITOR AND MENTHOL AND USE THEREOF IN TREATMENT OF HEART DISEASE” (EAST CHINA UNIVERSITY OF SCIENCE AND TECHNOLOGY, priority 2023, published 2025) are described below.

Experiment [1] concerns ISO-induced heart failure model. Description: Isoproterenol-induced heart failure model (Example 3). In kind it is in vivo, C57/6J male mice. The note with it: for cardiac function (ejection fraction, fractional shortening, echocardiography): gavage daily, day 15. The protocol:
Isoproterenol hydrochloride is a commonly used inducer for establishing a heart failure model. Subcutaneous injection of isoproterenol hydrochloride can accelerate the heart rate of mice, cause the myocardium to continue to contract strongly, increase myocardial oxygen consumption, increase the heart load, and eventually cause heart failure.
Preferably, 50 µM of empagliflozin and 200 μM of menthol were converted into a mass ratio of about 1:1.5 according to the molar molecular weight. The dose of empagliflozin was set at 10 mg/kg and 30 mg/kg, and the pharmaceutical composition was set as the 10 mg/kg empagliflozin+15 mg/kg menthol group. In addition, in order to determine the extent to which the combination of menthol can reduce the effective dose of empagliflozin, a combination of menthol at a dose of 15 mg/kg and empagliflozin at a dose of 5 mg/kg was administered, resulting in the empagliflozin 5 mg/kg+menthol 15 mg/kg group.
Specifically, C57/6J male mice with an average body weight of about 21-22 g were divided into 7 groups (sham group, ISO group, empagliflozin 30 mg/kg group (E30), empagliflozin 10 mg/kg group (E10), menthol 15 mg/kg group (M15), empagliflozin 10 mg/kg+menthol 15 mg/kg group (E10+M15), empagliflozin 5 mg/kg+menthol 15 mg/kg group (E5+M15)), with 8 mice in each group. The mice were given drugs by gavage every morning, and the solvent was DMSO (the content was less than 5%, and menthol and empagliflozin solution were mixed in equal volumes and then gavaged into the mice). The sham group and ISO group were gavaged with an equal amount of drinking water every morning.
Isoproterenol hydrochloride was injected subcutaneously twice a day, in the morning and evening, with a dose of 40 mg/kg on days 1-2, 20 mg/kg on days 3-7, and 10 mg/kg on days 8-14. […]
On the 15th day, the Visual-Sonics Vevo 3100 small animal high-resolution micro-ultrasound imaging system was used to evaluate the cardiac structure and function of the experimental mice in each group. Three cardiac cycles were taken to measure the systolic interventricular septum thickness (IVSs), diastolic interventricular septum thickness (IVSd), left ventricular systolic inner diameter (LVIDs), left ventricular diastolic inner diameter (LVIDd), systolic left ventricular posterior wall thickness (LVPWs), and diastolic left ventricular posterior wall thickness (LVPWd), and the ejection fraction (EF, %) and fractional shortening (FS, %) were calculated. […] ImageJ was used to quantify the fibrosis area and calculate the degree of cardiac fibrosis. Graph Pad software was used for data processing and significant differences were calculated (OneWayANOVA was used between multiple groups, and Student's t test was used between two groups).

Experiment [2] concerns Rat cardiomyocytes (H9c2). Description: GD-induced myocardial cell damage model, CCK-8, SGLT2 inhibitors with L-menthol (Example 9). It counts as cell-based. The note with it: single drugs: SGLT2 inhibitor 50 μM or menthol 200 μM; GD 36-48 h; untreated group 54.7%.
Experiment [3] relates to intracellular calcium concentration. Description: Intracellular calcium ion concentration with calcium probe Fluo4-AM (Example 5). In kind it is cell-based. The note with it: cariporide 100 μM, empagliflozin 50 μM, menthol 200 μM, combination 50 μM + 200 μM. The source says:
Intracellular calcium overload is an important factor in the transition of myocardial cells from reversible to irreversible damage. Intracellular calcium overload can be seen in a variety of cardiac pathological states, such as cardiac remodeling, myocardial ischemia-reperfusion injury, viral myocarditis, dilated cardiomyopathy, arrhythmias, and congestive heart failure. […] Empagliflozin can act on the sodium-hydrogen exchanger 1 (NHE1) on the myocardial cell membrane. When myocardial ischemia occurs, myocardial cell energy metabolism is impaired, and myocardial cells switch from fatty acid metabolism to sugar-free glycolysis, producing a large amount of lactic acid, which reduces the intracellular pH. As a regulatory protein for cell pH homeostasis, NHE1 can transport H^+ out of the cell by exchanging extracellular sodium ions, resulting in an increase in the intracellular sodium ion concentration. […] When mitochondrial function is impaired, the release of ROS increases, and ROS can further stimulate L-type calcium channels, promoting Ca^2+ influx, creating a vicious cycle. Empagliflozin inhibits the activity of NHE1 and can indirectly reduce the intracellular calcium ion concentration. Menthol, as an L-type calcium channel blocker, can synergistically reduce the intracellular calcium ion concentration with empagliflozin, playing a synergistic role. In order to verify this synergistic mechanism, the intracellular calcium ion concentration was detected using the calcium ion probe Fluo4-AM.
The experiment was divided into 5 groups, including control group (no drug group), cariporide group (positive control group, 100 μM), EMPA-50 (empagliflozin, 50 μM), M-200 (menthol, 200 μM), and E50+M200 (combination of 50 μM empagliflozin and 200 μM menthol).
• (1) Take an appropriate amount of Fluo4-AM stock solution (2 mM, BeyoTime, S1060) and dilute it to a 10 μM working solution with HBSS; • (2) For the cells to be tested (covering the bottom of the dish), remove the culture medium and wash with HBSS three times; • (3) Add 25 μL of Fluo4-AM working solution to each well, and then add 25 μL of compound solution to each well; • (4) Incubate at 37° C. for 30 min for fluorescent probe loading; • (5) Wash three times with HBSS, and add 100 μL of HBSS containing 10 mM CaCl2) to each well. Detect quantitatively the fluorescence of Fluo4-AM using a multifunctional fluorescence microplate reader (excitation wavelength 488 nm, emission wavelength 520 nm) to determine the changes in intracellular calcium ions.
Since empagliflozin indirectly affects intracellular calcium concentration by inhibiting NHE1, the intracellular environment was made acidic by using ammonium chloride solution to simulate the environment during myocardial ischemia, and the effect of the administered composition on intracellular calcium ions was tested. The NHE1 inhibitor cariporide was used as a positive control. The above step (3) was changed to add 25 μL of Fluo4-AM working solution to each well, mix the test compound with 80 mM NH4Cl solution at a 1:1 ratio, and then add 25 μL mixed solution of the compound and NH4Cl to each well (the final concentration of NH4Cl was 20 mM), and the remaining steps were the same as above.
For orientation: Calcium assays in cells follow changes in intracellular calcium, usually with a dye or a luminescent sensor.

Where [4] appears, read: NH4Cl present (20 mM, acidic intracellular conditions).

Consider `OC[C@H]1O[C@@H](c2ccc(Cl)c(Cc3ccc(O[C@H]4CCOC4)cc3)c2)[C@H](O)[C@@H](O)[C@@H]1O` [empagliflozin], for which the “cardiac function (ejection fraction, fractional shortening, echocardiography)” value in experiment [1] (empagliflozin 10 mg/kg) is “cannot significantly improve the cardiac function”; in experiment [1] (empagliflozin 30 mg/kg), “can effectively improve”. Also, in experiment [1] (empagliflozin 30 mg/kg), the “myocardial fibrosis (Masson staining area)” value is “significantly reduce myocardial fibrosis”. This molecule displayed a cell survival rate in experiment [2] of 64.5%. Also, the “effect on intracellular calcium concentration (Fluo4-AM fluorescence)” value is given as “significantly reduce intracellular calcium concentration” in experiment [3] (setting [4]) and “almost no effect” in experiment [3] (absence of NH4Cl).
Consider `CC(C)[C@@H]1CC[C@@H](C)C[C@H]1O` [menthol, L-menthol], for which the “cardiac function (ejection fraction, fractional shortening, echocardiography)” value in experiment [1] (menthol 15 mg/kg) was “slightly improved the cardiac function of mice with heart failure at a dose of 15 mg/kg, but there is no significant difference”. Besides, the cell survival rate in experiment [2] came out at 56.7%. For the same molecule, the “effect on intracellular calcium concentration (Fluo4-AM fluorescence)” value is given as “weak effect of reducing intracellular calcium concentration” in experiment [3] (setting [4]) and “weak inhibitory effect” in experiment [3] (absence of NH4Cl).
